Like-named read-outs stand apart in the source and are kept apart here.
Key:
Assay in all cases: Ras-Raf disruption / FRET / MOA assay (BRAF RBD)
Type in all cases: biochemical
[1] = molecular target: KRAS G12C (Homo sapiens, UniProt P01116+P62937, G12C); settings: with Cyclophilin A
Summary of the method: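 His6-K-Ras G12C-GMPPNP (12.5 nM), GST-BRAF RBD (50 nM) and tagless Cyclophilin A (25 μM) incubated 3 h at 25 °C with compound (10-point 3-fold series from 30 μM), pH 7.3 HEPES buffer. Anti-His Eu/anti-GST APC added for 1.5 h; decreased TR-FRET ratio vs DMSO gives IC50.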

[2] = molecular target: NRAS Q61R (Homo sapiens, UniProt P01111+P62937, Q61R)
Summary of the method: (§1)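 TR-FRET in 25 mM HEPES pH 7.3, 100 mM NaCl, 5 mM MgCl2, 0.1% BSA, 0.002% Tween20 with 25 μM Cyclophilin A, 12.5 nM His6-Ras-GMPPNP, 50 nM GST-BRAF RBD; compound 10-point 3-fold series from 30 μM. After 3 h at 25 °C, Eu anti-His/APC anti-GST added for 1.5 h; IC50 from ratio decrease versus DMSO.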

[3] = molecular target: NRAS Q61K (Homo sapiens, UniProt P01111+P62937, Q61K)
Summary of the method: as §1

[4] = molecular target: KRAS Q61H (Homo sapiens, UniProt P01116+P62937, Q61H)
Summary of the method: as §1

[5] = molecular target: KRAS G13C (Homo sapiens, UniProt P01116+P62937, G13C); settings: with Cyclophilin A
Summary of the method: as §1

[6] = molecular target: NRAS G12C (Homo sapiens, UniProt P01111+P62937, G12C)
Summary of the method: as §1

[7] = molecular target: KRAS G12D (Homo sapiens, UniProt P01116+P62937, G12D); settings: with Cyclophilin A
Summary of the method: as §1

[8] = molecular target: KRAS G12V (Homo sapiens, UniProt P01116+P62937, G12V); settings: with Cyclophilin A
Summary of the method: as §1

[9] = molecular target: NRAS WT (Homo sapiens, UniProt P01111+P62937)
Summary of the method: as §1

[10] = molecular target: KRAS WT (Homo sapiens, UniProt P01116+P62937); settings: with Cyclophilin A
Summary of the method: as §1

[11] = molecular target: KRAS G13D (Homo sapiens, UniProt P01116+P62937, G13D); settings: with Cyclophilin A
Summary of the method: as §1

[12] = molecular target: KRAS G12S (Homo sapiens, UniProt P01116+P62937, G12S); settings: with Cyclophilin A
Summary of the method: as §1

[13] = Ras-Raf disruption, read-out: KRAS G12C FRET data IC50
[14] = NRAS Q61R, read-out: NRAS Q61R FRET data IC50
[15] = NRAS Q61K, read-out: NRAS Q61K FRET data IC50
[16] = KRAS Q61H, read-out: KRAS Q61H FRET data IC50
[17] = Ras-Raf disruption, read-out: KRAS G13C FRET data IC50
[18] = NRAS G12C, read-out: NRAS G12C FRET data IC50
[19] = Ras-Raf disruption, read-out: KRAS G12D FRET data IC50
[20] = Ras-Raf disruption, read-out: KRAS G12V FRET data IC50
[21] = NRAS WT, read-out: NRAS WT FRET data IC50
[22] = Ras-Raf disruption, read-out: KRAS WT FRET data IC50
[23] = Ras-Raf disruption, read-out: KRAS G13D FRET data IC50
[24] = Ras-Raf disruption, read-out: KRAS G12S FRET data IC50
[25] = KRAS G12C FRET data IC50, Ras-Raf disruption
[26] = KRAS G13C FRET data IC50, Ras-Raf disruption
[27] = NRAS G12C FRET data IC50, NRAS G12C
[28] = KRAS G12D FRET data IC50, Ras-Raf disruption
[29] = KRAS G12V FRET data IC50, Ras-Raf disruption
[30] = KRAS WT FRET data IC50, Ras-Raf disruption
[31] = KRAS G13D FRET data IC50, Ras-Raf disruption
[32] = KRAS G12S FRET data IC50, Ras-Raf disruption

Chain of KRAS Q61H (P01116 1-169 isoform P01116-2 Q61H limits assumed): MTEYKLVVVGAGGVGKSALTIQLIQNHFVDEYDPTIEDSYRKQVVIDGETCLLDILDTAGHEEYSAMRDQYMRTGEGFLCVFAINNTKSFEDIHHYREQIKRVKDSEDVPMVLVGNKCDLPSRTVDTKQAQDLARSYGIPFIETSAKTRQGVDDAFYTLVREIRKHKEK
Chain of KRAS Q61H (P62937 whole entry): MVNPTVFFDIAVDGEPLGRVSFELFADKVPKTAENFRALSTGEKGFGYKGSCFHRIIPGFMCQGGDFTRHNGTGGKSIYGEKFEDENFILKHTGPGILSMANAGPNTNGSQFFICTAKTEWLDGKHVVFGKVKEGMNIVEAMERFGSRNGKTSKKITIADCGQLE
Chain of NRAS WT (P01111 whole entry): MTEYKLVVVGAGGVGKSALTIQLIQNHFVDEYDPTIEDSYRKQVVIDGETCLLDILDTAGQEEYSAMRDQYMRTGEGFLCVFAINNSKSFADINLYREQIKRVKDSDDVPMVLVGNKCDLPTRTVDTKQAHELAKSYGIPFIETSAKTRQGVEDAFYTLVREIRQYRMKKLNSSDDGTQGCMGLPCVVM
Chain of NRAS WT (P62937 whole entry): as the sequence (P62937 whole entry) above
Chain of NRAS Q61K (P01111 whole entry Q61K): as the sequence (P01111 whole entry) above, with Q61K counted along it
Chain of NRAS Q61K (P62937 whole entry): as the sequence (P62937 whole entry) above
Chain of KRAS G12C (P01116 1-169 isoform P01116-2 G12C limits assumed): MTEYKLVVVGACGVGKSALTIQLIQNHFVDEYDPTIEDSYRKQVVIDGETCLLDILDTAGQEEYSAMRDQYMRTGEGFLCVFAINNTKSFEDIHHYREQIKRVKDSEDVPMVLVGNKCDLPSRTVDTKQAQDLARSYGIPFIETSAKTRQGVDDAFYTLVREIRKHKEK
Chain of KRAS G12C (P62937 whole entry): as the sequence (P62937 whole entry) above
Chain of KRAS G13D (P01116 1-169 isoform P01116-2 G13D limits assumed): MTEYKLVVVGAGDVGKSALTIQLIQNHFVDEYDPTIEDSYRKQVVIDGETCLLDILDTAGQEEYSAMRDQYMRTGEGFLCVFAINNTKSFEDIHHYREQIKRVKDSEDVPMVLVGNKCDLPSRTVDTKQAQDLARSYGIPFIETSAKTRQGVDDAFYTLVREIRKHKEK
Chain of KRAS G13D (P62937 whole entry): as the sequence (P62937 whole entry) above
Chain of NRAS G12C (P01111 whole entry G12C): as the sequence (P01111 whole entry) above, with G12C counted along it
Chain of NRAS G12C (P62937 whole entry): as the sequence (P62937 whole entry) above
Chain of KRAS WT (P01116 1-169 isoform P01116-2 limits assumed): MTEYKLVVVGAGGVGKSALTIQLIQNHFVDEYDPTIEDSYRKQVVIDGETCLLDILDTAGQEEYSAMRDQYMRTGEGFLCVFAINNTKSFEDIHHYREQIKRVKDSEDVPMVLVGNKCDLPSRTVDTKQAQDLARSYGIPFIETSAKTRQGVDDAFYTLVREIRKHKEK
Chain of KRAS WT (P62937 whole entry): as the sequence (P62937 whole entry) above
Chain of KRAS G13C (P01116 1-169 isoform P01116-2 G13C limits assumed): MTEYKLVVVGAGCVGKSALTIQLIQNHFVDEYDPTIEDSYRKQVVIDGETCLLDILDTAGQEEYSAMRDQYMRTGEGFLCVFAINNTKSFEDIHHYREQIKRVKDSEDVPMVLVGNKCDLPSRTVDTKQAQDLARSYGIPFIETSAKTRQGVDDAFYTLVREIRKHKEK
Chain of KRAS G13C (P62937 whole entry): as the sequence (P62937 whole entry) above
Chain of KRAS G12D (P01116 1-169 isoform P01116-2 G12D limits assumed): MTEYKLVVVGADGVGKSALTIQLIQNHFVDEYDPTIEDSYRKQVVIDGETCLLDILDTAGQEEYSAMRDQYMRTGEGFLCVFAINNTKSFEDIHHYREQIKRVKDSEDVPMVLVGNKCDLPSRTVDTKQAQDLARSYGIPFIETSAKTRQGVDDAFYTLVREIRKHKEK
Chain of KRAS G12D (P62937 whole entry): as the sequence (P62937 whole entry) above
Chain of NRAS Q61R (P01111 whole entry Q61R): as the sequence (P01111 whole entry) above, with Q61R counted along it
Chain of NRAS Q61R (P62937 whole entry): as the sequence (P62937 whole entry) above
Chain of KRAS G12S (P01116 1-169 isoform P01116-2 G12S limits assumed): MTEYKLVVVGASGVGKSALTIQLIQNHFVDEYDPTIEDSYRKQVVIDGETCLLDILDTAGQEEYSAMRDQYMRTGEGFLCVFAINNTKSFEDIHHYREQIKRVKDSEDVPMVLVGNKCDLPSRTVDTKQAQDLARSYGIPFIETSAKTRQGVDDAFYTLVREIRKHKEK
Chain of KRAS G12S (P62937 whole entry): as the sequence (P62937 whole entry) above
Chain of KRAS G12V (P01116 1-169 isoform P01116-2 G12V limits assumed): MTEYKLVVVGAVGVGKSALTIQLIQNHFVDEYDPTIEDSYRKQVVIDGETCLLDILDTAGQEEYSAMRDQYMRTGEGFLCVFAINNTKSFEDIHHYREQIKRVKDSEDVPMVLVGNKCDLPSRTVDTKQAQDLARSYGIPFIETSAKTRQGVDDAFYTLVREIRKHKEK
Chain of KRAS G12V (P62937 whole entry): as the sequence (P62937 whole entry) above

Row | SMILES | IC50 [1, 13] | IC50 [2, 14] | IC50 [3, 15] | IC50 [4, 16] | IC50 [5, 17] | IC50 [6, 18] | IC50 [7, 19] | IC50 [8, 20] | IC50 [9, 21] | IC50 [10, 22] | IC50 [11, 23] | IC50 [12, 24] | IC50 [1, 25] | IC50 [2] | IC50 [3] | IC50 [4] | IC50 [5, 26] | IC50 [6, 27] | IC50 [7, 28] | IC50 [8, 29] | other results
1 | CCn1c(-c2cccnc2[C@H](C)OC)c2c3cc(ccc31)-c1csc(n1)C[C@H](NC(=O)[C@H](C(C)C)N(C)C(=O)N1CC(CN(C)C(=O)[C@@H]3CN3)C1)C(=O)N1CCC[C@H](N1)C(=O)OCC(C)(C)C2 (atropisomer, axis not shown) [Example 225] | 0.01 to 0.1 µM | 0.1 to 1 µM | 0.01 to 0.1 µM | 0.01 to 0.1 µM | 0.1 to 1 µM | 0.01 to 0.1 µM | 0.1 to 1 µM | 0.1 to 1 µM | 0.01 to 0.1 µM | 0.1 to 1 µM | 0.1 to 1 µM | 0.1 to 1 µM | – | – | – | – | – | – | – | – | –
2 | CCn1c(-c2cccnc2[C@H](C)OC)c2c3cc(ccc31)-c1cc(O)cc(c1)C[C@H](NC(=O)[C@H](C(C)C)N(C)C(=O)C13CC(CN1C(=O)[C@@H]1CN1)C3)C(=O)N1CCC[C@H](N1)C(=O)OCC(C)(C)C2 [Example 163] | – | – | – | – | – | – | – | – | – | – | – | – | 0.1 to 1 µM | 0.1 to 1 µM | 0.1 to 1 µM | 0.01 to 0.1 µM | 0.1 to 1 µM | 0.1 to 1 µM | 0.1 to 1 µM | 0.1 to 1 µM | IC50 [9]: 0.1 to 1 µM; IC50 [10, 30]: 0.1 to 1 µM; IC50 [11, 31]: 0.1 to 1 µM; IC50 [12, 32]: 0.1 to 1 µM
3 | CCn1c(-c2cccnc2[C@H](C)OC)c2c3cc(ccc31)-c1cc(O)cc(c1)C[C@H](NC(=O)[C@H](C(C)C)N(C)C(=O)C13CCC(CC1)N3C(=O)[C@H]1CN1)C(=O)N1CCC[C@H](N1)C(=O)OCC(C)(C)C2 [Example 202] | – | – | – | – | – | – | – | – | – | – | – | – | 0.01 to 0.1 µM | 0.1 to 1 µM | 0.1 to 1 µM | 0.01 to 0.1 µM | 0.1 to 1 µM | 0.01 to 0.1 µM | 0.1 to 1 µM | 0.1 to 1 µM | IC50 [9]: 0.1 to 1 µM; IC50 [10, 30]: 0.1 to 1 µM; IC50 [11, 31]: 0.1 to 1 µM; IC50 [12, 32]: 0.1 to 1 µM
4 | CCn1c(-c2cccnc2[C@H](C)OC)c2c3cc(ccc31)-c1csc(n1)C[C@H](NC(=O)[C@H](C(C)C)N(C)C(=O)N(C)CCN(C)C(=O)[C@H]1CN1)C(=O)N1CCC[C@H](N1)C(=O)OCC(C)(C)C2 (atropisomer, axis not shown) [Example 216] | 0.01 to 0.1 µM | 0.1 to 1 µM | 0.01 to 0.1 µM | 0.01 to 0.1 µM | 0.1 to 1 µM | 0.01 to 0.1 µM | 0.1 to 1 µM | 0.1 to 1 µM | 0.1 to 1 µM | 0.1 to 1 µM | 0.1 to 1 µM | 0.1 to 1 µM | – | – | – | – | – | – | – | – | –
5 | CCn1c(-c2cccnc2[C@H](C)OC)c2c3cc(ccc31)-c1cc(O)cc(c1)C[C@H](NC(=O)[C@H](C(C)C)N(C)C(=O)N1C[C@@H]3[C@H]1CCN3C(=O)[C@@H]1CN1)C(=O)N1CCC[C@H](N1)C(=O)OCC(C)(C)C2 (atropisomer, axis not shown) [Example 251] | 0.01 to 0.1 µM | 1 to 10 µM | 1 to 10 µM | 0.1 to 1 µM | 0.01 to 0.1 µM | 0.01 to 0.1 µM | 1 to 10 µM | 0.1 to 1 µM | 0.1 to 1 µM | 0.1 to 1 µM | 1 to 10 µM | 0.1 to 1 µM | – | – | – | – | – | – | – | – | –
6 | CCn1c(-c2cccnc2[C@H](C)OC)c2c3cc(ccc31)-c1csc(n1)C[C@H](NC(=O)[C@H](C(C)C)N(C)C(=O)N1CC(N(C)C(=O)[C@@H]3CN3)C1)C(=O)N1CCC[C@H](N1)C(=O)OCC(C)(C)C2 (atropisomer, axis not shown) [Example 219] | 0.1 to 1 µM | 0.1 to 1 µM | 0.01 to 0.1 µM | 0.1 to 1 µM | 0.1 to 1 µM | 0.1 to 1 µM | 1 to 10 µM | 0.1 to 1 µM | 0.1 to 1 µM | 0.1 to 1 µM | 0.1 to 1 µM | 0.1 to 1 µM | – | – | – | – | – | – | – | – | –

Reference: patent US20230233569A1 (Revolution Medicines, Inc., priority 2020, published 2023)
